Source: US20160222014A1, “COMPOUNDS FOR REGULATING FAK AND/OR SRC PATHWAYS” (ASANA BIOSCIENCES, LLC, priority 2013, published 2016)

Legend:
[1] = target: T1, recombinant human FAK1 (Homo sapiens, UniProt Q05397); assay: FAK1 HTRF assay; format: biochemical
T1 construct: fused on or other part: N-terminal 6xHis tag
Procedure: Active FAK1 was prepared for use in the Homogeneous Time-Resolved Fluorescence (HTRF) assay. Briefly, N-terminal 6 His tagged recombinant human FAK1, from residue 692-end (GenBank accession no. L13616) was expressed by Bacculovirus in sf9 cells. […] A 1.6 mg/mL (45 μM) stock was used in the HTRF assay at a final concentration of 10 nM.
Gastrin precursor (tyr87) biotinylated peptide which contains the residues surrounding tyrosine 87 (EEAY*GWM) of gastrin precursor was obtained (Cell Signaling Tech, Item no. 1310, Lot 7). The peptide was provided at a stock concentration of 6 μM, and used a final concentration of 0.5 μM in the HTRF assay.
10 mM stock in 100 μL Enzyme assay buffer pH7.4 was prepared freshly and used at a final concentration of 10 μM in the assay.
Powders were dissolved in 100% DMSO to a final stock concentration of 10 mM. The volume needed (in μL) to add for 10 mM=mg powder is 10^5/MW of compound. The final compound concentration in the assay plate started at 10 μM.
Pfizer FAK inhibitor PF-562271 (N-methyl-N-(3-(((2-((2-oxoindolin-5-yl)amino)-5-(trifluoromethyl)pyrimidin-4-yl)amino)methyl)pyridin-2-yl)methanesulfonamide) was prepared as per the reported procedure from US Patent Publication No. 2005/256145A1.
Streptavidin-Allophycocyanin was obtained (Prozyme, Cat. No. PJ25S. SA-APC was provided at a stock concentration of 2.06 mg/mL, where APC concentration was 11.6 μM and the streptavidin concentration was 15.5 μM. SA-APC was used at a final concentration of 12 nM in the assay (based on streptavidin concentration).
This reagent was obtained from Perkin ElmerAD0068. Europium-W1024-PT-66 Anti Phospho Tyrosine Ab is a monoclonal IgG1 that recognizes phospho tyrosine peptide. 100 μg/mL stock was used at a final concentration of 0.1 nM in the assay.
• 1. The compound dilutions were made by TECAN liquid handler as per the scheme in FIG. 1. • 2. 16 μL of diluted compound was added to each well of the assay plate using TECAN liquid handler. • 3. 20 μL of substrate mix (biotinylated gastrin precursor) was added into each well of the assay plate manually. • 4. 10 μL of enzyme mix (FAK1) was added to each well except mins. • 5. The plate was incubated at rt for 45 min with shaking. • 6. The HTRF mix was prepared and 75 μL was added to the HTRF plate. • 7. After the incubation was over, 10 μL of the mixture was transferred to the HTRF assay plate and incubated for 45 min at rt with shaking. • 8. The readings were taken in Pherastar in HTRF mode (ext 337 nm, em 665 & 620 nm) • 9. The results were analyzed using Graphpad Prism® software after calculation the z factor signal window and % inhibition. • 10. The IC50 was calculated.

[2] = target: T2, AURKB (Aurora B) enzyme (Homo sapiens, UniProt Q96GD4); assay: Aurora B HTRF assay; format: biochemical; details: read-out: AuroraB IC50
T2 construct: purchased Invitrogen PVR 130
T2 sequence (Q96GD4 whole entry): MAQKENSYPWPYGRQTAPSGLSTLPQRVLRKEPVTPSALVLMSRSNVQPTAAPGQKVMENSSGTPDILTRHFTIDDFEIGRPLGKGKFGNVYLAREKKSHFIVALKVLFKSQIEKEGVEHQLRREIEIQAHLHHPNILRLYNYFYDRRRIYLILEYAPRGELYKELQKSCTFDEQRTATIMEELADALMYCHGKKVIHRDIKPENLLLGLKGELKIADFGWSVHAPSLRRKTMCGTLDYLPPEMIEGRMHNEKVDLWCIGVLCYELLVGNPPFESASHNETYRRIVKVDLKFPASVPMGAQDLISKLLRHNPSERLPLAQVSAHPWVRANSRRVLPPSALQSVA
Procedure: AURKB (Aurora B) enzyme was obtained (Invitrogen, Cat No. PVR 130, Lot No. 857013J). A 8.64 μM stock was used at a final concentration 5 nM in the assay.
Lance@Ultera Ulight-PLK (Ser137) peptide substrate
Peptide substrate was obtained from Perkin Elmer (Lot#1629793, TRF0110-M). A 5 μM stock was used at a final concentration of 50 nM in the assay.
10 mM stock prepared freshly as above, used at a final concentration of 30 μM in assay.
The plate was covered with aluminum foil, put on a shaker and incubated 1 h at rt.
Reference: Pfizer aurora inhibitor PF-03814735 was procured from Selleckchem: Cat# S2725
Using stock Lance detection buffer, 1× Lance detection buffer was prepared. • 1. 10× lance detection buffer was diluted to 1×, mixed well and 100 μL was removed, and was used to substitute with antibody and EDTA (for a total of 2200 μL). • 2. 88 μL of […] EDTA was added from 500 mM stock. • 3. 14 μL Europium labeled antibody (LANCE@ Ultra EU-Anti-P-PLK(Ser 137), TRF0203-D, Lot No. 1630351, Perkin Elmer) was added from 625 nM stock; required concentration was 2 nM in the assay. • 4. The buffer well was mixed and 20 μL was transferred to the each well in the assay plate. • 5. The solutions were incubated for 1 h at rt. • 6. The plate was read using MET-HTRF® protocol using Pherastar equipment.

T1 sequence (Q05397 422-680 limits assumed): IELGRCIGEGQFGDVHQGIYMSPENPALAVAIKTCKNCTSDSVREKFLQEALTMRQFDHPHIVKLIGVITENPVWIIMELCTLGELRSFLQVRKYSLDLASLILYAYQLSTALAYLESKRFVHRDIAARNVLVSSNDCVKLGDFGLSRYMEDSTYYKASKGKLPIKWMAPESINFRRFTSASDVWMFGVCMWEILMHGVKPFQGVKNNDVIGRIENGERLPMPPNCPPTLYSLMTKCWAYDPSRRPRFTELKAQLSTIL

SMILES | IC50 [1] [nM] | IC50 [2] [nM]
CC(=O)Nc1ccc(Nc2cc3c(cn2)cnn3Cc2ccccc2OC(F)F)cc1 [Example 75] |  | > 1000
CC(=O)Nc1ccc(Nc2cc3c(cn2)cnn3Cc2ccccc2OC(F)F)nc1 [Example 73] |  | > 1000
COc1cc(Nc2ncc3ccn(S(=O)(=O)c4cccc5cccnc45)c3n2)ccc1N1CCN(CCO)CC1 [Example 431] | < 20 | < 20
Cc1nn(Cc2cccnc2N(C)S(C)(=O)=O)c2cc(Nc3ccc4c(c3)CCC(=O)N4)ncc12 [Example 69] |  | > 1000
O=c1[nH]c2ccc(Nc3ncc4ccn(S(=O)(=O)c5cccc6cccnc56)c4n3)cc2[nH]1 [Example 395] | < 20 | < 20
C[C@@H]1CN(c2ccc(Nc3ncc4c(n3)N(S(=O)(=O)c3ccccc3C#N)CC4(C)C)cc2)CCN1 [Example 466] |  | > 1000
Cc1cc(Nc2ncc3c(n2)N(S(=O)(=O)c2cccc4cccnc24)CC3(C)C)ccc1N1CCC(N(C)C)CC1 [Example 648] |  | > 1000
C[C@@H](O)CN1CCN(c2ccc(Nc3ncc4ccn(Cc5ccccc5N(C)S(C)(=O)=O)c4n3)cc2)CC1 [Example 665] | < 20 | < 20
CN1CCN(c2ccc(Nc3ncc4ccn(Cc5ccccc5N(C)S(C)(=O)=O)c4n3)cc2)CC1 [Example 428] | < 20 | < 20
C[C@H]1CN(c2ccc(Nc3ncc4ccn(Cc5ccccc5N(C)S(C)(=O)=O)c4n3)cc2F)CCN1 [Example 557] |  | < 20
CN(C)C1CCCN(c2ccc(Nc3ncc4ccn(Cc5ccccc5N(C)S(C)(=O)=O)c4n3)cc2)C1 (centres unmarked) [Example 598] |  | < 20
C[C@H]1CNCCN1c1ccc(Nc2ncc3c(n2)N(S(=O)(=O)c2cccc4cccnc24)CC3(C)C)cc1 [Example 564] |  | > 1000
CN(c1ncccc1CN1C(=O)Cc2cnc(Nc3ccc(N4CCC(O)CC4)cc3)nc21)S(C)(=O)=O [Example 404] |  | > 1000
C[C@H]1CN(c2ccc(Nc3ncc4ccn(Cc5cccnc5N(C)S(C)(=O)=O)c4n3)cc2)CCN1C [Example 487] |  | < 20
Nc1ccccc1S(=O)(=O)n1ccc2cnc(Nc3ccc4c(c3)CCC(=O)N4)nc21 [Example 164] |  | < 20
CC1(C)CN(S(=O)(=O)c2ccccc2C#N)c2nc(Nc3ccc(N4CCNCC4)cc3)ncc21 [Example 461] |  | > 1000

SMILES | IC50 [1] [nM] | IC50 [2] [nM]
c1cnc2c(Cn3ccc4cnc(Nc5ccc(N6CCNCC6)cc5)nc43)cccc2c1 [Example 378] |  | < 20
C[C@@H]1CNCCN1c1ccc(Nc2ncc3ccn(Cc4ccccc4N(C)S(C)(=O)=O)c3n2)cc1 [Example 482] |  | < 20
C[C@H](O)CN1CCN(c2ccc(Nc3ncc4ccn(Cc5ccccc5N(C)S(C)(=O)=O)c4n3)cc2)C[C@H]1C [Example 692] |  | < 20
CN(C)CCOc1cccc(Nc2ncc3ccn(S(=O)(=O)c4ccccc4C#N)c3n2)c1 [Example 173] |  | < 20
C[C@H]1CN(c2ccc(Nc3ncc4c(n3)N(S(=O)(=O)c3cccc5cccnc35)CC4(C)C)cc2F)CCN1 [Example 554] |  | > 1000
CN(C)S(=O)(=O)c1ccccc1Cn1ccc2cnc(Nc3ccc(N4CCNCC4)cc3)nc21 [Example 200] |  | < 20
CN1CCN(c2ccc(Nc3ncc4c(n3)N(S(=O)(=O)c3cccc5cccnc35)CC4(C)C)cc2)CC1 [Example 498] |  | > 1000
CN(c1ncccc1Cn1ccc2cnc(Nc3cccc(CO)c3)nc21)S(C)(=O)=O [Example 166] |  | < 20
CC1(C)CN(S(=O)(=O)c2cccc3cccnc23)c2nc(Nc3ccc(N4CCNCC4)c(F)c3)ncc21 [Example 524] |  | > 1000
CN(c1ncccc1Cn1ccc2cnc(Nc3ccc4nn[nH]c4c3)nc21)S(C)(=O)=O [Example 189] |  | < 20
CN(c1ccccc1Cn1ccc2cnc(Nc3ccc(N4CCNC(CO)C4)cc3)nc21)S(C)(=O)=O (centres unmarked) [Example 602] |  | < 20
CN(c1ccccc1Cn1ccc2cnc(Nc3ccc(N4CCC(N)CC4)cc3)nc21)S(C)(=O)=O [Example 463] |  | < 20
C[C@H](O)CN1CCN(c2ccc(Nc3cc4c(ccn4S(=O)(=O)c4ccccc4C#N)cn3)cc2)CC1 [Example 631] |  | < 20
C[C@@H]1CN(C)CCN1c1ccc(Nc2ncc3ccn(Cc4ccccc4N(C)S(C)(=O)=O)c3n2)cc1 [Example 488] |  | < 20
N#Cc1ccccc1S(=O)(=O)n1ccc2cnc(Nc3ccc4c(c3)CC3CNCCN43)cc21 (centres unmarked) [Example 551] |  | < 20

Now from value to molecule:

IC50 [1] [nM] | IC50 [2] [nM] | SMILES
< 20 | < 20 | Cc1cc(Nc2cc3c(ccn3S(=O)(=O)c3ccccc3C#N)cn2)ccc1N1CCNCC1 [Example 390]
< 20 | < 20 | CN(C)c1cccc(Nc2ncc3ccn(Cc4cccnc4N(C)S(C)(=O)=O)c3n2)c1 [Example 139]
< 20 | < 20 | CS(=O)(=O)Nc1ccccc1Cn1ccc2cnc(Nc3ccc4c(c3)CCC(=O)N4)nc21 [Example 595]
< 20 | < 20 | C[C@H](O)CN1CCN(c2ccc(Nc3ncc4ccn(Cc5ccccc5N(C)S(C)(=O)=O)c4n3)cc2)CC1 [Example 632]
< 20 | < 20 | N#Cc1ccccc1S(=O)(=O)n1ccc2cnc(Nc3ccc(N4CCN(CCO)CC4)cc3)cc21 [Example 413]
 | < 20 | CN(C)C1CN(c2ccc(Nc3ncc4ccn(Cc5ccccc5N(C)S(C)(=O)=O)c4n3)cc2F)C1 [Example 608]
< 20 | < 20 | O=S(=O)(c1cccc2cccnc12)n1ccc2cnc(Nc3ccc(N4CCN(CCO)CC4)cc3)cc21 [Example 340]
< 20 | < 20 | CC1(C)CN(S(=O)(=O)c2cccc3cccnc23)c2nc(Nc3ccc4c(c3)CCC(=O)N4)ncc21 [Example 545]
 | < 20 | Cc1ccc2cccc(S(=O)(=O)n3ccc4cnc(Nc5ccc(N6CCNCC6)cc5)nc43)c2n1 [Example 367]
 | < 20 | CN(c1ccccc1Cn1ccc2cnc(Nc3ccc(N4CCNC(C)(C)C4=O)cc3)nc21)S(C)(=O)=O [Example 552]
< 20 | < 20 | C[C@H]1CNCCN1c1ccc(Nc2ncc3ccn(S(=O)(=O)c4cccc5cccnc45)c3n2)cc1 [Example 326]
< 20 | < 20 | COc1cc(Nc2ncc3ccn(S(=O)(=O)c4cccc5cccnc45)c3n2)ccc1N1CCN(C)CC1 [Example 427]
 | < 20 | CN(c1ccccc1Cn1ccc2cnc(Nc3ccc(C4CNCCN4)cc3)nc21)S(C)(=O)=O (centres unmarked) [Example 610]
 | < 20 | N#Cc1ccccc1S(=O)(=O)n1ccc2cnc(Nc3ccc(C4CNCCN4)cc3)cc21 (centres unmarked) [Example 614]
< 20 | < 20 | C[C@H](O)CN1CCN(c2ccc(Nc3ncc4ccn(Cc5ccccc5N(C)S(C)(=O)=O)c4n3)cc2)C[C@@H]1C [Example 695, N-(2-((2-((4-((S)-4-((S)-2-hydroxypropyl)-3-methylpiperazin-1-yl)phenyl)amino)-7H-pyrrolo[2,3-d]pyrimidin-7-yl)methyl)phenyl)-N-methylmethanesulfonamide]
< 20 | < 20 | COc1ccc(N(C)S(C)(=O)=O)c(Cn2ccc3cnc(Nc4ccc5c(c4)CC(=O)N5)nc32)c1 [Example 691]
